Data from patent publication US20240165281A1, “DUAL MODE RADIOTRACER AND THERAPEUTICS” (Technische Universität München, priority 2021, published 2024).
Read-outs that look alike come from different tables or passages of the source.

Experiments:
[1] = biological target: T1, Human Serum Albumin (HSA) (Homo sapiens, UniProt P02768); test: Human serum albumin (HSA) binding by high performance affinity chromatography (HPAC); type: in vitro ADME; conditions: Chiralpak HSA column
T1 construct: purchased Daicel H13H-2433
Description: Determination of Human Serum Albumin (HSA) Binding by High Performance Affinity Chromatography (HPAC)
HSA binding of the PSMA-addressing ligands was determined according to a previously published procedure via HPLC (Valko, K.; Nunhuck, S.; Bevan, C.; Abraham, M. H.; Reynolds, D. P. Journal of pharmaceutical sciences 2003, 92, 2236-2248). A Chiralpak HSA column (50×3 mm, 5 μm, H13H-2433, Daicel, Tokyo, Japan) was used at a constant flow rate of 0.5 mL/min at rt. Mobile phase A was a freshly prepared 50 mM aqueous solution of NH4OAc (pH 6.9) and mobile phase B was isopropanol (HPLC grade, VWR). The applied gradient for all experiments was 100% A (0 to 3 min), followed by 80% A (3 to 40 min). Prior to the experiment, the column was calibrated using nine reference substances with a HSA binding, known from literature, in the range of 13 to 99% (Valko, K.; Nunhuck, S.; Bevan, C.; Abraham, M. H.; Reynolds, D. P. Journal of pharmaceutical sciences 2003, 92, 2236-2248; Yamazaki, K.; Kanaoka, M. Journal of Pharmaceutical sciences 2004, 93, 1480-1494). All substances, including the examined PSMA ligands, were dissolved in a 1:1 mixture (v/v) of isopropanol and a 50 mM aqueous solution of NH4OAc (pH6.9) with a final concentration of 0.5 mg/mL. Non-linear regression was established with the OriginPro 2016G software (Northampton, United States) (FIG. 8).

[2] = Apparent molecular weight (MWapp)
[3] = tested on: LNCaP tumor-bearing male CB-17 SCID mice; test: Biodistribution studies 24 h p.i.; conditions: for In vivo biodistribution (24 h p.i.) blood / In vivo biodistribution (24 h p.i.) kidney / In vivo biodistribution (24 h p.i.) tumor: Table 6; for uptake in adrenals / uptake in blood / uptake in bone / uptake in heart / uptake in intestine / uptake in kidney / uptake in liver / uptake in lung / uptake in muscle / uptake in pancreas / uptake in parotid gl. / uptake in spleen / uptake in stomach / uptake in submand. gl. / uptake in tumor: mean
Description: Approximately 3-7 MBq (0.1-0.2 nmol) of the radioactive-labelled PSMA inhibitors were injected into the tail vein of LNCaP tumor-bearing male CB-17 SCID mice and sacrificed after 24 h post injection. Selected organs were removed, weighted and measured in a γ-counter. Results are all decay corrected and given in % injected dose per gram of tissue (% iD/g). Tumor-to-organ ratios are calculated from animals' individual ratios and are given as mean±standard deviation.

[4] = biological target: T2, PSMA (Homo sapiens, UniProt Q04609); test: PSMA affinity (IC50), competition with [125I]I-BA-KuE on LNCaP cells; type: binding; conditions: natLu complex, on ice 60 min
T2 construct: PSMA-positive LNCAP cells (300265; Cell Lines Service, Eppelheim, Germany); host or cells: LNCaP cells
Description: A mixture of trypsin and EDTA (0.05%, 0.02%) in PBS (Biochrom) was used in order to harvest cells. Cells were counted with a Neubauer hemocytometer (Paul Marienfeld, Lauda-Königshofen, Germany).
Affinity Determinations (IC50)
In the case of metal-complexed ligands, the crude reaction mixture was diluted analogously, without further purification. Cells were harvested 24±2 hours prior to the experiment and seeded in 24-well plates (1.5×10^5 cells in 1 mL/well). […] The media of both steps were combined in one fraction and represent the amount of free radioligand. Afterwards, the cells were lysed with 250 μL of 1 M aqueous NaOH for at least 10 min. After a washing step (250 μL of 1 M NaOH), both fractions, representing the amount of bound ligand, were united. Quantification of all collected fractions was accomplished in a γ-counter. PSMA-affinity determinations were carried out at least three times per ligand.

[5] = Octanol-water partition coefficient (log D7.4); type: physicochemical; conditions: PBS pH 7.4 / n-octanol, 177Lu-labelled
Description: Octanol-Water Partition Coefficient (log D7.4)
Approximately 1 MBq of the labelled tracer was dissolved in 1 mL of a 1:1 mixture (v/v) of PBS (pH 7.4) and n-octanol in a reaction vial (1.5 mL). After vigorous mixing of the suspension for 3 minutes at room temperature, the vial was centrifuged at 15000 g for 3 minutes (Biofuge 15, Heraus Sepatech, Osterode, Germany) and 100 μL aliquots of both layers were measured in a gamma counter. The experiment was repeated at least six times.

[6] = tested on: LNCaP cells; test: Internalization studies in LNCaP cells; type: cell-based; conditions: 37° C., 60 min, normalized to reference
Description: PSMA-positive LNCAP cells (300265; Cell Lines Service, Eppelheim, Germany) were cultivated in Dulbecco modified Eagle medium/Nutrition Mixture F-12 with Glutamax (1:1) (DMEM-F12, Biochrom, Berlin, Germany) supplemented with fetal bovine serum (10%, FBS Zellkultur, Berlin, Germany) and kept at 37° C. in a humidified CO2 atmosphere (5%). A mixture of trypsin and EDTA (0.05%, 0.02%) in PBS (Biochrom) was used in order to harvest cells. Cells were counted with a Neubauer hemocytometer (Paul Marienfeld, Lauda-Königshofen, Germany).
For internalization studies, LNCaP cells were harvested 24±2 hours before the experiment and seeded in poly-L-lysine coated 24-well plates (1.25×10^5 cells in 1 mL/well, Greiner Bio-One, Kremsmünster, Austria). After removal of the culture medium, the cells were washed once with 500 μL DMEM-F12 (5% BSA) and left to equilibrate for at least 15 min at 37° C. in […] DMEM-F12 (5% BSA). Each well was treated with either 25 μL of either DMEM-F12 (5% BSA, control) or 25 μL of a 100 μM PMPA (2-(Phosphonomethyl)-pentandioic acid, Tocris Bioscience, Bristol, UK) solution in PBS, for blockade. Next, 25 μL of the radioactive-labelled PSMA inhibitor (10.0 nM in DMEM-F12 (5% BSA)) was added and the cells were incubated at 37° C. for 60 min. The experiment was terminated by placing the 24-well plate on ice for 3 min and consecutive removal of the medium. Each well was carefully washed with 250 μL of ice-cold HBSS. Both fractions from the first steps, representing the amount of free radioligand, were combined. Removal of surface bound activity was accomplished by incubation of the cells with 250 μL of ice-cold PMPA (10 μM in PBS) solution for 5 min and rinsed again with another 250 μL of ice-cold PBS. The internalized activity was determined by incubation of the cells in 250 μL […] aqueous NaOH for at least 10 min. The obtained fractions were combined with those of the subsequent wash step with 250 μL 1 M aqueous NaOH. Each experiment (control and blockade) was performed in triplicate. Free, surface bound and internalized activity was quantified in a y-counter. All internalization studies were accompanied by external reference studies, using ([^125I]I-BA)KuE (c=0.2 nM), which were performed analogously. Data were corrected for non-specific binding and normalized to the specific-internalization observed for the radioiodinated reference compound.

T1 sequence (P02768 25-609): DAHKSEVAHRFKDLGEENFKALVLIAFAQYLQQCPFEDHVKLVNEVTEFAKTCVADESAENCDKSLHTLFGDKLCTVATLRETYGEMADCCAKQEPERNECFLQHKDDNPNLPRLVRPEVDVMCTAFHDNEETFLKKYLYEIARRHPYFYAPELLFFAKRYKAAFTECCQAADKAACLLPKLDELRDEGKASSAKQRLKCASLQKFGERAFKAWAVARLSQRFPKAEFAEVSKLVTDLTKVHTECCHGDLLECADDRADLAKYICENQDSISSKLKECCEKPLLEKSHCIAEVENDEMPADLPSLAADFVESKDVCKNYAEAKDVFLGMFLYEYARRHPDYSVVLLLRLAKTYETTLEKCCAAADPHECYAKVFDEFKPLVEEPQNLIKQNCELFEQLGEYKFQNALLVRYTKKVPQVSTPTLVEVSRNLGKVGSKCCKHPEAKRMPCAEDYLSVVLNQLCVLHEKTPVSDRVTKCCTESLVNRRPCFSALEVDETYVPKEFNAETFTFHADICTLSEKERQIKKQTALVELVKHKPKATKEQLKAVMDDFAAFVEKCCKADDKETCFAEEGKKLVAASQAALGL
T2 sequence (Q04609 whole entry): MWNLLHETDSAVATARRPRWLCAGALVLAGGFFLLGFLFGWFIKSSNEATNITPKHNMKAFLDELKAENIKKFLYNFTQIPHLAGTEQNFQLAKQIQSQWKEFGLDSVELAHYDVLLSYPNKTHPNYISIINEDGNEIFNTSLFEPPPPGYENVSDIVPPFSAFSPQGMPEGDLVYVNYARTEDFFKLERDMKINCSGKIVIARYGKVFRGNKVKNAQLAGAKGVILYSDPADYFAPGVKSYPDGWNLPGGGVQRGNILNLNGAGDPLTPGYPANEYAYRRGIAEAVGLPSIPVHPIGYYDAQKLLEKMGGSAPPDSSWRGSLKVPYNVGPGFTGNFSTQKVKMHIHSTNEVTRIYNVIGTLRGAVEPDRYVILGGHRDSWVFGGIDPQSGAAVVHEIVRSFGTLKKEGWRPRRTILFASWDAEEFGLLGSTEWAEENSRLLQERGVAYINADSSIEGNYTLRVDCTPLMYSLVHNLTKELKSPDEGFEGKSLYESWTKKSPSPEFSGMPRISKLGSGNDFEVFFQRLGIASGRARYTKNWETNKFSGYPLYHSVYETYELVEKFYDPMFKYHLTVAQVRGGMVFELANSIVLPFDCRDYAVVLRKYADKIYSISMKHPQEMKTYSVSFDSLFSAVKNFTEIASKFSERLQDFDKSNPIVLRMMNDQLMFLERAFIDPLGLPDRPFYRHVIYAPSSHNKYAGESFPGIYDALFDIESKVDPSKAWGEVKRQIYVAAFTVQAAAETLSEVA

Row | SMILES | HSA (HPAC) [1] | MWapp [2] | In vivo biodistribution (24 h p.i.) blood [3] | In vivo biodistribution (24 h p.i.) kidney [3] | In vivo biodistribution (24 h p.i.) tumor [3] | uptake in adrenals [3] | uptake in blood [3] | uptake in bone [3] | uptake in heart [3] | uptake in intestine [3] | uptake in kidney [3] | uptake in liver [3] | uptake in lung [3] | uptake in muscle [3] | uptake in pancreas [3] | uptake in parotid gl. [3] | uptake in spleen [3] | uptake in stomach [3] | uptake in submand. gl. [3] | uptake in tumor [3] | also measured
1 | CC(C)(C)[Si](F)(c1ccc(C(=O)NCC(NC(=O)CCC(C(=O)O)N2CCN(CC(=O)O)CCN(CC(=O)O)CCN(CC(=O)O)CC2)C(=O)NC(CN)C(=O)NCCC(=O)NCCC(=O)NCCCC(NC(=O)CCC(NC(=O)NC(CCC(=O)O)C(=O)O)C(=O)O)C(=O)O)cc1)C(C)(C)C (stereo not shown) [Compound 2C011] | 89.8% | 18.9 kDa | 0.0042 ± 0.0019 % iA/g | 2.1 ± 0.49 % iA/g | 11.86 ± 0.75 % iA/g | 0.1488 % iD/g | 0.0042 % iD/g | 0.0363 % iD/g | 0.0254 % iD/g | 0.2229 % iD/g | 2.0983 % iD/g | 0.2848 % iD/g | 0.0469 % iD/g | 0.0067 % iD/g | 0.0264 % iD/g | 0.0857 % iD/g | 0.3218 % iD/g | 0.0829 % iD/g | 0.052 % iD/g | 11.8594 % iD/g | IC50 [4]: 6.08 ± 0.16 nM; logD7.4 [5]: −2.88 ± 0.06; Internalization [6]: 163.2 ± 6.91 % IBA
2 | CC(C)(C)[Si](F)(c1ccc(C(=O)NC[C@@H](NC(=O)[C@@H](CCCNC(N)=O)NC(=O)CC[C@@H](C(=O)O)N2CCN(CC(=O)O)CCN(CC(=O)O)CCN(CC(=O)O)CC2)C(=O)NCCCCCC(=O)NCCC[C@@H](NC(=O)CC[C@H](NC(=O)N[C@@H](CCC(=O)O)C(=O)O)C(=O)O)C(=O)O)cc1)C(C)(C)C [Compound 2C014] | 94.6% | 19.2 kDa | 0.0014 ± 0.0006 % iA/g | 2.77 ± 0.84 % iA/g | 16.54 ± 3.37 % iA/g | 0.1473 % iD/g | 0.0014 % iD/g | 0.0327 % iD/g | 0.0245 % iD/g | 0.1006 % iD/g | 2.7708 % iD/g | 0.2376 % iD/g | 0.0654 % iD/g | 0.0107 % iD/g | 0.0192 % iD/g | 0.09 % iD/g | 0.4296 % iD/g | 0.0367 % iD/g | 0.0555 % iD/g | 16.5415 % iD/g | IC50 ([4]; read-out: IC50): 3.95 ± 1.36 nM; logD7.4 [5]: −3.37 ± 0.10; Internalization [6]: 235 ± 20 % IBA
